# Measured values published in article PMC10845951, “Characterization of a selective, iron-chelating antifungal compound that disrupts fungal metabolism and synergizes with fluconazole” (Microbiology Spectrum, 2024).
# Tested on: C. glabrata gene expression
# Experiment: RNA sequencing (gene regulation)
# Type: cell-based, Candida glabrata
# Conditions: for Log2 Fold-Change: vs DMSO; for Regulation Status: 26CvsDMSO
# Method: Cells from overnight precultures in YPD medium were reinoculated in fresh YNB −iron medium (see “Culture maintenance” for contents) without iron and grown until OD600 of 0.4. […] Cells were collected from three independent experiments, snap frozen, and stored at −80°C. Total RNA purification was performed as previously described using the RNeasy Mini Kit (74104, Qiagen), and gDNA removal was made using the RNase-Free DNase Set kit (79254, Qiagen). RNA quantification and quality control were done with a Tape Station 4150 (Agilent) ([59]).
# Library preparation and sequencing were performed at GenomEast (IGBMC, Illkirch, France). One DMSO 0.05% sample was excluded from the analysis due to insufficient quality. The library was sequenced on Illumina Hiseq 4000 sequencer as single-read 50-base reads following Illumina’s instructions. Reads were pre-processed in order to remove adapter, polyA, and low-quality sequences (Phred quality score below 20). Reads shorter than 40 bases were discarded from further analysis. These pre-processing steps were performed using cutadapt version 1.10 ([60]). Image analysis and base calling were performed using RTA 2.7.7 and bcl2fastq2.17.1.14. Adapter dimer reads were removed using DimerRemover (https://sourceforge.net/projects/dimerremover/). The quality of the RNAseq reads was examined using FastQC 0.11.2 (http://www.bioinformatics.babraham.ac.uk/projects/fastqc/) and FastQScreen 0.5.1 (https://www.bioinformatics.babraham.ac.uk/projects/fastq_screen/). Reads were mapped onto the ASM254v2 assembly of Candida glabrata genome using STAR version 2.5.3a ([61]). Gene expression quantification was performed from uniquely aligned reads using htseq-count version 0.6.1p1 ([62]), with annotations from Ensembl fungi version 50 and union mode. Only non-ambiguously assigned reads have been retained for further analyses. Read counts were normalized across samples with the median-of-ratios method ([63]). Comparisons were implemented in the Bioconductor package DESeq2 version 1.16.1 using the test for differential expression ([64]). Genes with no P-value corresponded to genes with high Cook’s distance that were filtered out. P-values were adjusted for multiple testing using the Benjamini and Hochberg method ([65]). Genes with no adjusted P-value correspond to genes filtered out in the independent filtering step in order to remove reads from genes that have no or little chance of showing evidence of significant differential expression.
smiles,measurement,setting,value
"c1ccc(-c2cccc(-c3ccccn3)n2)nc1 [2,2′:6′,2′′-terpyridine]",Log2 Fold-Change,TSA1 CAGL0K06259g,1.052
same,Log2 Fold-Change,ZPR1 CAGL0K00759g,0.6092
same,Regulation Status,gene CAGL0F07029g MET13,Downregulated
same,Regulation Status,gene CAGL0F07513g,Downregulated
same,Regulation Status,gene CAGL0F08481g,Downregulated
same,Regulation Status,gene CAGL0F08503g,Downregulated
same,Regulation Status,gene CAGL0F09163g,Downregulated
same,Regulation Status,gene CAGL0G01903g MET1,Downregulated
same,Regulation Status,gene CAGL0G02695g,Downregulated
same,Regulation Status,gene CAGL0G03619g,Downregulated
same,Regulation Status,gene CAGL0G03861g,Downregulated
same,Regulation Status,gene CAGL0G03883g,Downregulated
same,Regulation Status,gene CAGL0G03905g,Downregulated
same,Regulation Status,gene CAGL0G06050g,Downregulated
same,Regulation Status,gene CAGL0G06402g,Downregulated
same,Regulation Status,gene CAGL0G06600g,Downregulated
same,Regulation Status,gene CAGL0G06732g,Downregulated
same,Regulation Status,gene CAGL0G07711g,Downregulated
same,Regulation Status,gene CAGL0G08712g KGD1,Downregulated
same,Regulation Status,gene CAGL0G09581g,Downregulated
same,Regulation Status,gene CAGL0G10131g,Downregulated
same,Regulation Status,gene CAGL0G10153g,Downregulated
same,Regulation Status,gene CAGL0H02365g,Downregulated
same,Regulation Status,gene CAGL0H02491g,Downregulated
same,Regulation Status,gene CAGL0H02541g,Downregulated
same,Regulation Status,gene CAGL0H03531g MNP1,Downregulated
same,Regulation Status,gene CAGL0H03795g LEU2,Downregulated
same,Regulation Status,gene CAGL0H03993g CIT1,Downregulated
same,Regulation Status,gene CAGL0H05775g,Downregulated
same,Regulation Status,gene CAGL0H05797g,Downregulated
same,Regulation Status,gene CAGL0H06732g,Downregulated
same,Regulation Status,gene CAGL0H06743g,Downregulated
same,Regulation Status,gene CAGL0H07023g,Downregulated
same,Regulation Status,gene CAGL0H08283g HSP10,Downregulated
same,Regulation Status,gene CAGL0H09306g,Downregulated
same,Regulation Status,gene CAGL0H09328g,Downregulated
same,Regulation Status,gene CAGL0H10076g,Downregulated
same,Regulation Status,gene CAGL0I00924g,Downregulated
same,Regulation Status,gene CAGL0I01276g,Downregulated
same,Regulation Status,gene CAGL0I01298g,Downregulated
same,Regulation Status,gene CAGL0I01408g CYC1,Downregulated
same,Regulation Status,gene CAGL0I01496g,Downregulated
same,Regulation Status,gene CAGL0I01848g,Downregulated
same,Regulation Status,gene CAGL0I02728g,Downregulated
same,Regulation Status,gene CAGL0I03190g RIP1,Downregulated
same,Regulation Status,gene CAGL0I04180g AMT1,Downregulated
same,Regulation Status,gene CAGL0I04994g MET6,Downregulated
same,Regulation Status,gene CAGL0I05280g,Downregulated
same,Regulation Status,gene CAGL0I05698g,Downregulated
same,Regulation Status,gene CAGL0I06270g,Downregulated
same,Regulation Status,gene CAGL0I06644g,Downregulated
same,Regulation Status,gene CAGL0I06831g,Downregulated
same,Regulation Status,gene CAGL0I06985g,Downregulated
same,Regulation Status,gene CAGL0I07969g,Downregulated
same,Regulation Status,gene CAGL0I08305g,Downregulated
same,Regulation Status,gene CAGL0I08503g,Downregulated
same,Regulation Status,gene CAGL0I08767g,Downregulated
same,Regulation Status,gene CAGL0I09009g,Downregulated
same,Regulation Status,gene CAGL0I09262g,Downregulated
same,Regulation Status,gene CAGL0I09812g,Downregulated
same,Regulation Status,gene CAGL0I10923g,Downregulated
same,Regulation Status,gene CAGL0J00429g COX6,Downregulated
same,Regulation Status,gene CAGL0J00847g SDH1,Downregulated
same,Regulation Status,gene CAGL0J01463g,Downregulated
same,Regulation Status,gene CAGL0J01699g,Downregulated
same,Regulation Status,gene CAGL0J02090g,Downregulated
same,Regulation Status,gene CAGL0J03806g,Downregulated
same,Regulation Status,gene CAGL0J04026g,Downregulated
same,Regulation Status,gene CAGL0J04268g,Downregulated
same,Regulation Status,gene CAGL0J04554g,Downregulated
same,Regulation Status,gene CAGL0J04884g,Downregulated
same,Regulation Status,gene CAGL0J05302g,Downregulated
same,Regulation Status,gene CAGL0J06380g,Downregulated
same,Regulation Status,gene CAGL0J06490g,Downregulated
same,Regulation Status,gene CAGL0J06820g,Downregulated
same,Regulation Status,gene CAGL0J08316g,Downregulated
same,Regulation Status,gene CAGL0J09680g,Downregulated
same,Regulation Status,gene CAGL0J09790g,Downregulated
same,Regulation Status,gene CAGL0J11484g DUG3,Downregulated
same,Regulation Status,gene CAGL0J11682g,Downregulated
same,Regulation Status,gene CAGL0K00110g AWP2,Downregulated
same,Regulation Status,gene CAGL0K02409g,Downregulated
same,Regulation Status,gene CAGL0K02893g,Downregulated
same,Regulation Status,gene CAGL0K03663g,Downregulated
same,Regulation Status,gene CAGL0K04279g SCM4,Downregulated
same,Regulation Status,gene CAGL0K06677g MET8,Downregulated
same,Regulation Status,gene CAGL0K06853g,Downregulated
same,Regulation Status,gene CAGL0K07315g,Downregulated
same,Regulation Status,gene CAGL0K07678g,Downregulated
same,Regulation Status,gene CAGL0K08184g CCP1,Downregulated
same,Regulation Status,gene CAGL0K08668g MET28,Downregulated
same,Regulation Status,gene CAGL0K08800g ADI1,Downregulated
same,Regulation Status,gene CAGL0K09218g,Downregulated
same,Regulation Status,gene CAGL0K10120g,Downregulated
same,Regulation Status,gene CAGL0K10868g CTA1,Downregulated
same,Regulation Status,gene CAGL0K10956g,Downregulated
same,Regulation Status,gene CAGL0K10978g,Downregulated
same,Regulation Status,gene CAGL0K12100g,Downregulated
same,Regulation Status,gene CAGL0K12958g,Downregulated
same,Regulation Status,gene CAGL0L00429g,Downregulated
same,Regulation Status,gene CAGL0L00759g HIS1,Downregulated
same,Regulation Status,gene CAGL0L00803g,Downregulated
